Results from patent EP4461731A1, “LIGANDS OF THE M6A-RNA READERS” (Universität Zürich, priority 2023, dated 2024).
Like-named read-outs stand apart in the source and are kept apart here.

Legend:
Cells [1] = experiment: cells; details: 72 h
Cells [2] = details: read-out: Antiprolif. activity GI50; 72 h, CellTiter-Glo; cell line not named
[3] = read-out: Antiprolif. activity GI50
[4] = read-out: Antiprolif. activity GI50, 72 h, CellTiter-Glo, cell line not named

Q: Which GI50 (Cells [1]; [3]) does the source give for CNc1nc(Cl)nc2c1ncn2Cc1cccc(Cl)c1 [ZA349, 2-chloro-9-(3-chlorobenzyl)-N-methyl-9H-purin-6-amine] here?
A: ≤ 10 µM

Q: For CNc1nc(Cl)nc2c1ncn2Cc1ccc(OC)c(Cl)c1 [FE150, 2-chloro-9-(3-chloro-4-methoxybenzyl)-N-methyl-9H-purin-6-amine], which GI50 (Cells [1]; [3]) is on record?
A: ≤ 10 µM

Q: What does the source list for CNc1nc(Cl)nc2c1ncn2Cc1cc(Cl)ccc1NS(C)(=O)=O [ZA400, N-(4-chloro-2-((2-chloro-6-(methylamino)-9H-purin-9-yl)methyl)phenyl) methanesulfonamide]?
A: GI50 (Cells [1]; [4]): 31 µM; GI50 (Cells [2]): 21 µM

Q: How did the GI50 (Cells [1]; [4]) turn out when CNc1nc(Cl)nc2c1ncn2Cc1cccc(C(=O)OC)c1 [ZA347, Methyl 3-((2-chloro-6-(methylamino)-9H-purin-9-yl)methyl)benzoate] was run?
A: ≤ 10 µM

Q: CNc1nc(Cl)nc2c1ncn2Cc1ccc(C(=O)OC)cc1 [ZA311, Methyl 4-((2-chloro-6-(methylamino)-9H-purin-9-yl)methyl)benzoate] was tested. Which GI50 (Cells [1]; [3]) did it give?
A: ≤ 10 µM

Q: With CNc1nc(Cl)nc2c1ncn2Cc1ccccc1NS(C)(=O)=O [ZA364, N-(2-((2-chloro-6-(methylamino)-9H-purin-9-yl)methyl)phenyl)methanesulfonamide] as the compound, how does the GI50 (Cells [1]; [4]) read?
A: 21 µM
